Reference: patent US20240180855A1, “BIOACTIVE PRODUCTS” (priority 2021, published 2024)
Values joined by “and” are separate entries in the source; they are usually repeats but may differ in a detail not shown here. Equal values may be shown once. Read-outs that look alike come from different tables or passages of the source.

Legend:
[1] = tested on: wheat; test: Wheat growth after seed treatment with reverse transcription, integration and protease inhibitors (Example 4); type: in vivo; settings: seeds treated 1 hour at 37° C.; cultivation 23° C.
[2] = tested on: Wheat seeds (Triticum aestivum L.); test: Wheat growth under stress conditions (18° C.) after seed soaking (Example 2); type: in vivo; settings: seeds soaked 1 hour at 37° C., 100 μg/ml, cultivation 18° C.; for Root length (cm) / Shoot length (cm): after 5 days
Method: The cultivation temperature was 18° C., instead of the required 23° C. The assessment of the state of the plants was carried out after 5 days (table 2).

[3] = tested on: Wheat seeds (Triticum aestivum L.); test: Wheat seed germination on potato dextrose agar after soaking in products (Example 1); type: in vivo; settings: seeds soaked 1 hour; nucleases 100 μg/ml at 37° C., M4 group products 0.5%
From the text: Wheat seeds (Triticum aestivum L., healthy, not infected) were washed with water with soap, then without soap. […] Then the seeds (8 pieces) were laid out on potato dextrose agar (https://himedialabs.com/TD/M096.pdf). Treatment with test products.

[4] = tested on: wheat; test: Wheat growth after one-time watering with products (Example 7); type: in vivo; set-up: Shoot length / Root length: unit not given here; settings: one-time watering 1000 μg/ml, 200 ml for 20 grains; day 5
[5] = tested on: wheat; test: Wheat growth after seed treatment with complexes of inhibitors and nucleases (Example 5); type: in vivo; settings: seeds treated 1 hour at 37° C.; cultivation 23° C.
Method: Plant: wheat Treatment: The seeds were treated with various products for 1 hour, at 37° C. […] Cultivation temperature 23° C.

[6] = tested on: Fish (Trout) fish eggs contaminated with various pathogens
[7] = tested on: Fungi of the Saprolegnia spp.; test: Time to inactivation of Saprolegnia fungi (Example 15); type: cell-based; set-up: key: —: No antimicrobial activity
Method: Fungi in the amount of 10e8 cells were added to 1.0 ml of a solution of the test substance and after incubation were washed by PBS with centrifugation, resuspended in buffer, and plated on potato agar to assess survival.

[8] = tested on: wheat; settings: in vivo
[9] = tested on: patients with seborrheic dermatitis; test: Treatment of seborrheic dermatitis (Example 23); type: in vivo, human; settings: excipient alone, regimen not given; assessed within 14 days
Method: The efficacy of the drugs was assessed within 14 days, using objective and subjective measures (the prevalence of the disease, the degree of inflammation and infiltration of skin elements, the severity of itching, peeling and crusting). Dermatoscopy was done using the Heine, mini 3000 LED.

[10] = tested on: Red Turkish Carnation Seeds; test: Full cycle of plant growth after seed treatment with nucleases (Example 12); type: in vivo; settings: seeds incubated with 100 μg/ml at 37° C. for 60 minutes
[11] = tested on: wheat; test: Regulation of wheat development after seed treatment (Example 3); type: in vivo; settings: seeds treated 1 hour at 37° C.; cultivation 23° C.
Method: Plant: wheat. Treatment: The wheat seeds were treated with various nucleases or products of the M4 group for 1 hour, at 37° C. […] Cultivation temperature 23° C.

In the case of `Nc1nc(NC2CC2)c2ncn([C@H]3C=C[C@@H](CO)C3)c2n1` [Abacavir], the “Chlorophyll total” value [1] is reported as 51.8 mg/g, the “Emergence (%)” value [1] is reported as 50% and the “Root lenght (median)” value [1] is reported as 11. The “Shoot length (median)” value [1] was 13.
For `[H]/N=C(\N/C(=N/[H])NCCCCCCNC(=N)NC(=N)Nc1ccc(Cl)cc1)Nc1ccc(Cl)cc1` [Chlorhexidine], the “Emergence at day 5” value [2] was 53%, the “Root length (cm)” value [2] was 1.9 cm and the “Shoot length (cm)” value [2] was 6.3 cm. For the same molecule, the “Germination (%) at day 5 Day 3” value [3] was 54%, the “Median shoot length (mm) Day 3” value [3] was 14.6 mm and the “Emergence (%)” value [4] was 50%. For the same molecule, the Root length [4] was 3.6 and the Shoot length [4] was 6.9.
For `COc1cc2c(cc1Cc1cccc(Cl)c1F)c(=O)c(C(=O)O)cn2[C@H](CO)C(C)C` [Elvitegravir], the “Emergence at day 5” value [2] was 65%, the “Root length (cm)” value [2] was 2.6 cm and the “Shoot length (cm)” value [2] was 9.9 cm.
`Cc1cc(C#N)cc(C)c1Oc1nc(Nc2ccc(C#N)cc2)nc(N)c1Br` [Etravirine] was tested, and the “Chlorophyll total” value [1] was 58.7 mg/g, the “Emergence (%)” value [1] was 55% and the “Root lenght (median)” value [1] was 9. The “Shoot length (median)” value [1] was 13, the “Chlorophyll total” value [5] was 25.0 mg/g and the “Emergence (%)” value [5] was 75%. It also gave a Root lenght [5] of 5.5 and a Shoot length [5] of 7.4.
In the case of `Nc1ccn([C@@H]2CS[C@H](CO)O2)c(=O)n1` [Lamivudine], the “Chlorophyll total” value [1] is reported as 54.3 mg/g, the “Emergence (%)” value [1] is reported as 55% and the “Root lenght (median)” value [1] is reported as 9. For the same molecule, the “Shoot length (median)” value [1] was 13.
`CN(C)c1ccc(C(=C2C=CC(=[N+](C)C)C=C2)c2ccccc2)cc1` [Malachite green] was tested, and the Growth after plating [6] was “Lawn”.
For `OC[C@@H](O)[C@@H](O)[C@H](O)[C@H](O)CO` [Mannit (0.01%), Mannitol], the “Time (minutes) to reach 100% inactivation” value ([7]; 0.005%) was “—”, the “Time (minutes) to reach 100% inactivation” value ([7]; 0.01%) was “—” and the “Time (minutes) to reach 100% inactivation” value ([7]; 0.05%) was “—”. For the same molecule, the “Time (minutes) to reach 100% inactivation” value ([7]; 0.1%) was “—” and the “Time (minutes) to reach 100% inactivation” value ([7]; 0.5%) was “—”.
In the case of `CN(C)c1ccc2nc3ccc(=[N+](C)C)cc-3sc2c1` [Methylene blue], the Growth after plating [6] is reported as “Lawn”.
With `O=P([O-])([O-])O.[Na+].[Na+]` [Na2HPO4 (0.01%), Na2HPO4] the “Time (minutes) to reach 100% inactivation” value ([7]; 0.005%) was “—”, the “Time (minutes) to reach 100% inactivation” value ([7]; 0.01%) was “—” and the “Time (minutes) to reach 100% inactivation” value ([7]; 0.05%) was “—”. For the same molecule, the “Time (minutes) to reach 100% inactivation” value ([7]; 0.1%) was “—”, the “Time (minutes) to reach 100% inactivation” value ([7]; 0.5%) was “—” and the “Root length (cm)” value [8] was 7.7 cm and 5.9 cm. For the same molecule, the “Seedling length (cm)” value [8] was 8.4 cm and 6.1 cm.
In the case of `Cc1ccnc2c1NC(=O)c1cccnc1N2C1CC1` [Nevirapine], the “Chlorophyll total” value [1] is reported as 52.9 mg/g, the “Emergence (%)” value [1] is reported as 25% and the “Root lenght (median)” value [1] is reported as 0. The “Shoot length (median)” value [1] was 0.
For `Cc1nnc(C(=O)NC(C)(C)c2nc(C(=O)NCc3ccc(F)cc3)c(O)c(=O)n2C)o1` [Raltegravir], the “Emergence at day 5” value [2] was 71%, the “Root length (cm)” value [2] was 2.6 cm and the “Shoot length (cm)” value [2] was 9.8 cm. For the same molecule, the “Chlorophyll total” value [1] was 56.9 mg/g, the “Emergence (%)” value [1] was 60% and the “Root lenght (median)” value [1] was 8. For the same molecule, the “Shoot length (median)” value [1] was 12, the “Chlorophyll total” value [5] was 25.9 mg/g and the “Emergence (%)” value [5] was 42%. For the same molecule, the Root lenght [5] was 1.9 and the Shoot length [5] was 5.7.
For `C[C@H](Cn1cnc2c(N)ncnc21)OCP(=O)(O)O` [Tenofovir], the “Chlorophyll total” value [1] was 57.7 mg/g, the “Emergence (%)” value [1] was 45% and the “Root lenght (median)” value [1] was 9. For the same molecule, the “Shoot length (median)” value [1] was 14.
With `O=S(=O)([O-])[O-].[Zn+2]` [ZnSO4 0.01%, ZnSO4] the “Time (minutes) to reach 100% inactivation” value ([7]; 0.005%) was “—”, the “Time (minutes) to reach 100% inactivation” value ([7]; 0.01%) was “—” and the “Time (minutes) to reach 100% inactivation” value ([7]; 0.05%) was “—”. For the same molecule, the “Time (minutes) to reach 100% inactivation” value ([7]; 0.1%) was “—”, the “Time (minutes) to reach 100% inactivation” value ([7]; 0.5%) was “—*” and the “Day at which prevalence of the symptoms was reduced by 80%” value [9] was >14 days. The “Root length (cm)” value [8] was 5.7 cm and 7.1 cm and the “Seedling length (cm)” value [8] was 6.1 cm and 8.0 cm.
DNAse was tested, and the “Emergence at day 5” value [2] was 64%, the “Root length (cm)” value [2] was 2.1 cm and the “Shoot length (cm)” value [2] was 6.9 cm. For the same molecule, the Emergence (%) [10] was 95%, the “Height on day 99” value [10] was 7+/−1 and the “Root branching at 99 days (words in the root length cell)” value [10] was “branched”. For the same molecule, the “Root length at 99 days” value [10] was 7+/−0.5, the “The appearance of the first leaves” value [10] was 5th day and the “The beginning of flowering” value [10] was 183 days. For the same molecule, the “The emergence of the buds” value [10] was 174 days, the “Weight of seeds on day 258/12 plants” value [10] was 0.24 g and the “Germination (%) at day 5 Day 3” value [3] was 75%. The “Median shoot length (mm) Day 3” value [3] was 24.6 mm, the Chlorophyll total [11] was 49.1 and the “Emergence (%)” value [11] was 67%. The “Leaf length (cm)” value [11] was 2.8 cm, the “Leaf width (cm)” value [11] was 1.4 cm and the Number of leaves [11] was 2 + 1. For the same molecule, the “Root length (cm)” value [11] was 15.2 cm, the “Shoot length (cm)” value [11] was 5.8 cm and the “Weight” value [11] was 0.6 g. For the same molecule, the “Chlorophyll total” value [5] was 24.7 mg/g, the “Emergence (%)” value [5] was 73% and the Root lenght [5] was 3.6. The Shoot length [5] was 5.2.
Trypsin was tested, and the “Chlorophyll total” value [5] was 30.3 mg/g, the “Emergence (%)” value [5] was 49% and the Root lenght [5] was 5.8. It also gave a Shoot length [5] of 2.5.
